Where a name gives a salt, the structure may show the parent alone. Read-outs that look alike come from different tables or passages of the source.
Columns and labels:
HIV-1 (HTLV-IIIB strain) = assay: Occurrence of HIV-1 positive cells in U1 cells with or without TPA stimulation (indirect fluorescent antibody technique); type: cell-based; settings: for Rate (%) of occurrence of HIV-1 positive cells: U1 cells
Procedure: As the cell to be tested here for estimation of the occurrence of HIV in this Example, there were used such U1 cells which had been prepared by introducing 2 copies of the gene DNA of HIV-1 (HTLV-IIIB strain) into U937 cells (human monocytic blast-like cells, namely one sort of human T-cells). The U1 cell is an HIV potentially-infected T-cell wherein the HIV-1 gene is present merely as provirus.
The above-mentioned U1 cells were seeded and incubated in Costar 48-well-plates under such different conditions as indicated below. Thus, the U1 cells were seeded in a culture medium and were incubated in the presence of 5,6-O-benzylidene-L-ascorbic acid mono-sodium salt (hereinafter abbreviated as SBA) as incorporated at different concentrations by addition of SBA to the culture medium, or the U1 cells were incubated in the absence of SBA. The incubation of these U1 cells was further effected with such both two types of those U1 cells, namely with such one type of U1 cells which had been stimulated further by addition of TPA at various concentrations thereto, and with such another type of U1 cells which had not been stimulated by TPA.
When the U1 cells as stimulated by the addition of TPA were incubated, replication of the viral particles of HIV took place in considerable numbers of the U1 cells, resulting in the production of the HIV antigen within the cells, so that said cells thus became such HIV-positive cells which could sprout and release the viral particles of HIV therefrom. This replication of the viral particles of HIV can be detected by an indirect fluorescent antibody technique as illustrated below.
The U1 cells were thus incubated under the different conditions as explained in the above, including such a case where both SBA and TPA were not added; such a case where SBA was added, but TPA was not added; such a case where SBA was not added, but TPA was added; and such as case where both SBA and TPA were added, respectively. Then, the replication of the viral particles of HIV within the U1 cells, and the release of the viral particles of HIV from the U1 cells so incubated under the different conditions as above mentioned were detected by means of the indirect fluorescence technique in which there were employed a mouse monoclonal antibody having an anti-HIV-1 activity as a primary antibody and also employed an FITC-rabbit-originated […] as a secondary antibody. The number of the U1 cells which could be detected as the HIV-positive cells was calculated in term of percentage (%) on the basis of the total numbers of the U1 cells as subjected to the test, and it was expressed as the rate (%) of occurrence or appearance of the HIV-1 positive cells.

[1] = Cytotoxicity of SBA, trypan blue dye-exclusion, U1 cells; type: cell-based; settings: human, read-out: Rate of survival of the cells (%)
From the text: It is known that stimulation of HIV gene by TPA and tumor necrosis factor (TNF) can activate the HIV gene which is latent as the HIV-provirus within the T-cells as infected with HIV and said stimulation can thus strongly induce the progresses of sprouting and release of the viral particles of HIV. It is considered that said activation of the HIV gene for the occurrence or developement of HIV virus would be caused by such an oxidation stress which is brought about within the host cells by any stimulation given from outside the host cells as above-mentioned. Further, such discoveries and observations have been reported that NFkB, which is a nuclear factor wthin the cells, can play important part in the proliferation of HIV virus, and that the oxidation-reduction status of the NFkB is important for the activation of this factor NFkB, and so on. […] (a) Test of examining cytotoxicity of SBA against various kinds of T-cells A3.01 cells (HAT-susceptible CEM cell strain), A3.01 cells as infected with HIV, and the above-mentioned U1 cells were cultivated, respectively, in an improved RPM1-1640 media containing SBA added at different concentrations. After the cultivation, the number of the cells under test which still survived was determined under a polarizing microscope by a trypan blue dye-exclusion method.

ICR strain mice = assay: Evaluation of toxicity (intravenous, mice); type: in vivo; settings: intravenously, 1000 mg per kg body weight, male, 5 mice in each group
Procedure: SBA in the form of a solution in a physiological saline (containing […]) was administered intravenously to ICR strain mice (5 week-aged, male, 5 mice in each group) at a dosage of 1000 mg per kg of the body weight of mice tested.

## O=C1O[C@H]([C@@H]2COC(c3ccccc3)O2)C(O)=C1O (stereo partly drawn) [SBA, 5,6-O-benzylidene-L-ascorbic acid mono-sodium salt]
HIV-1 (HTLV-IIIB strain); Human immunodeficiency virus 1, IIIB, U1 cells incubated in the presence of TPA, read-out: concentration of SBA required to achieve 50% inhibition of the replication of the HIV viral particles
  IC50: ~400 µg/mL
HIV-1 (HTLV-IIIB strain); SBA 25 µg/ml, TPA (1 ng/ml) was added
  Rate (%) of occurrence of HIV-1 positive cells: 26%
HIV-1 (HTLV-IIIB strain); SBA 25 µg/ml, TPA was not added
  Rate (%) of occurrence of HIV-1 positive cells: 3%
HIV-1 (HTLV-IIIB strain); SBA 50 µg/ml, TPA (1 ng/ml) was added
  Rate (%) of occurrence of HIV-1 positive cells: 21%
HIV-1 (HTLV-IIIB strain); SBA 50 µg/ml, TPA was not added
  Rate (%) of occurrence of HIV-1 positive cells: 2%
HIV-1 (HTLV-IIIB strain); SBA 100 µg/ml, TPA (1 ng/ml) was added
  Rate (%) of occurrence of HIV-1 positive cells: 16%
HIV-1 (HTLV-IIIB strain); SBA 100 µg/ml, TPA was not added
  Rate (%) of occurrence of HIV-1 positive cells: 2%
HIV-1 (HTLV-IIIB strain); SBA 200 µg/ml, TPA (1 ng/ml) was added
  Rate (%) of occurrence of HIV-1 positive cells: 14%
HIV-1 (HTLV-IIIB strain); SBA 200 µg/ml, TPA was not added
  Rate (%) of occurrence of HIV-1 positive cells: 3%
HIV-1 (HTLV-IIIB strain); SBA 400 µg/ml, TPA (1 ng/ml) was added
  Rate (%) of occurrence of HIV-1 positive cells: 12%
HIV-1 (HTLV-IIIB strain); SBA 400 µg/ml, TPA was not added
  Rate (%) of occurrence of HIV-1 positive cells: 3%
HIV-1 (HTLV-IIIB strain); SBA 800 µg/ml, TPA (1 ng/ml) was added
  Rate (%) of occurrence of HIV-1 positive cells: 8%
HIV-1 (HTLV-IIIB strain); SBA 800 µg/ml, TPA was not added
  Rate (%) of occurrence of HIV-1 positive cells: 4%
[1]; SBA 100 µg/ml
  viability: 90%
[1]; SBA 500 µg/ml
  viability: 100%
[1]; SBA 800 µg/ml
  viability: 83%
[1]; SBA 1000 µg/ml
  viability: 92%
ICR strain mice
  mortality: None of the mice thus treated died

From patent publication EP0765662A1, “HIV GROWTH INHIBITORY COMPOSITION” (Kochi, Mutsuyuki, priority 1994, dated 1995)
